Read-outs that look alike come from different tables or passages of the source.

This note sets out measurements from patent publication US9200286B2 (THE RESEARCH FOUNDATION FOR THE STATE UNIVERSITY OF NEW YORK, priority 2010, dated 2015).

The target of one series is GluA1flip (Rattus norvegicus, UniProt P19490). Description: Subunit selectivity, whole-cell recording, GluA1. It counts as cell-based. The following applies: closed- and open-channel glutamate concentrations.
The target in the next series is GluA2Qflip AMPA receptor (Rattus norvegicus, UniProt P19491). To be noted: for Ki: from A/A(I) vs inhibitor concentration; for inhibition by A/A(I), ratio of whole-cell current amplitude in absence and presence of aptamer: 1 μM aptamer (FIG. 3, FIG. 5).
Chain of GluA2Qflip AMPA receptor (P19491 22-883 isoform P19491-2 limits assumed): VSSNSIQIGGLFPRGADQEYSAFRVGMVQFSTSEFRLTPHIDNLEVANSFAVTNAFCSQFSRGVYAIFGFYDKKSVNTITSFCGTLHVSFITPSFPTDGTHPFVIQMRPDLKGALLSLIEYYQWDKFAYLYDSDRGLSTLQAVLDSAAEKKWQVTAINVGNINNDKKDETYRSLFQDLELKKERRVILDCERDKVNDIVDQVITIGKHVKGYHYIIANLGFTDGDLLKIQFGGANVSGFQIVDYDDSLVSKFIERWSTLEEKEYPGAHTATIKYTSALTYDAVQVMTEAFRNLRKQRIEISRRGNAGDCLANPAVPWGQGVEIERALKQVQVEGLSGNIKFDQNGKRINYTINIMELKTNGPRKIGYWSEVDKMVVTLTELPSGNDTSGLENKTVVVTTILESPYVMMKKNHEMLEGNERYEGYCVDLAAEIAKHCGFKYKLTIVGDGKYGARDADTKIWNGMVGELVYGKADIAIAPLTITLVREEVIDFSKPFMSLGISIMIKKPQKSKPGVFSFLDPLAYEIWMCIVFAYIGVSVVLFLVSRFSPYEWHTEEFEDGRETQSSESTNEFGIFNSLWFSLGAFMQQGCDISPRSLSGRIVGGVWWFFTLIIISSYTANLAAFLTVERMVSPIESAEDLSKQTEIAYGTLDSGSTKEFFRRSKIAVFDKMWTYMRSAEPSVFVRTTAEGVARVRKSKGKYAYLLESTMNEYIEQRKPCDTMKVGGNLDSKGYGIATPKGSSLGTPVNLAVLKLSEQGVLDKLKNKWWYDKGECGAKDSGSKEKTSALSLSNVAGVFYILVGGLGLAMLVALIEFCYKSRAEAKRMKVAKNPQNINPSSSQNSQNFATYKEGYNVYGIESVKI
The next series deals with GluA2Qflip receptor (Rattus norvegicus, UniProt P19491). As to the kind of experiment: Homologous competition binding assay (cold vs hot aptamer). To be noted: for binding to the receptor in the presence of NBQX: competitive inhibitor, data not shown; for Kd: triplicate data sets.
Chain of GluA2Qflip receptor (P19491 22-883 isoform P19491-2 limits assumed): as above
Description: (§1) In fact, in a homologous competition binding experiment (42) in which the non-radiolabeled aptamer (or cold aptamer) was used to compete against the same, but radiolabeled, aptamer (or hot aptamer), AF44 bound to not only the closed-channel conformation (i.e., the unliganded, closed-channel receptor form) but also the open-channel conformation (FIG. 10). […] The binding results were consistent with noncompetitive sites, because these sites were supposed to be accessible through both the closed- and the open-channel conformations. […] These sites were noncompetitive type because binding to the receptor by either AF44 or AF42 or the full length AF1422 was unaffected in the presence of NBQX, a classic competitive inhibitor.
as §1, with “inhibitor (data not shown).” for “inhibitor.”

The mark [1] stands for this setting: open-channel GluA2Qflip, read-out: Kd, open-channel conformation.
Where [2] appears, read: unliganded, closed-channel GluA2Qflip, read-out: Kd, closed-channel conformation.

Chain of GluA1flip (P19490 19-907 isoform P19490-2 limits assumed): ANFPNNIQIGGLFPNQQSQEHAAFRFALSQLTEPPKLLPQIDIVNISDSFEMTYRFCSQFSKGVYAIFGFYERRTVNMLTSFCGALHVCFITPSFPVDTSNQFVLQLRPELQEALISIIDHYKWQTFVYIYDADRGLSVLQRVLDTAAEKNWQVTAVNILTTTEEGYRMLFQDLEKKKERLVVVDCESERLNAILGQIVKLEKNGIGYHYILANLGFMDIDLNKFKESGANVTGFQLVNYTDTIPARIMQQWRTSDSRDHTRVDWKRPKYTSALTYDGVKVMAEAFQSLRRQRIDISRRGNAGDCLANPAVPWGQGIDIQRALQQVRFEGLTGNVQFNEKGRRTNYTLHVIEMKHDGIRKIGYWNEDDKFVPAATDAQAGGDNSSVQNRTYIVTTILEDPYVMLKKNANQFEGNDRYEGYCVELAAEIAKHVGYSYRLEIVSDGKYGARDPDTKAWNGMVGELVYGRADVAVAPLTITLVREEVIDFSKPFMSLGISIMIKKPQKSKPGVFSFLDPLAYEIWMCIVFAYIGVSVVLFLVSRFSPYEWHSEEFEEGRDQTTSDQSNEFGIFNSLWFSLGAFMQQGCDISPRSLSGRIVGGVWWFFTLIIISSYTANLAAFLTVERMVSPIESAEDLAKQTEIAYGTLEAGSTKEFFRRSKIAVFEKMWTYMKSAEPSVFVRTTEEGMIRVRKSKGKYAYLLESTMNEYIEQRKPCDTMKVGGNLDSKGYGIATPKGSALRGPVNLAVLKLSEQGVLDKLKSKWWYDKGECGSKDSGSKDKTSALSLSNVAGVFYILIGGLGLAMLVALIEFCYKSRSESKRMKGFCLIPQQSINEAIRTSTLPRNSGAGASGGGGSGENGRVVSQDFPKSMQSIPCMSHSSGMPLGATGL
Description for GluA1flip: The subunit selectivity of AF44/AF42 was assessed with individual subunits of AMPA, kainate and NMDA receptors expressed in HEK-293 cells, and was represented by A/A(I) value collected from whole-cell recording (FIG. 8A).
All of the receptors were transiently expressed in HEK-2935 cell. HEK-293S cells were maintained in Dulbecco's modified Eagle's medium (DMEM) supplemented with 10% fetal bovine serum and 1% penicillin in a 37° C., 5% CO2, humidified incubator. Receptors were transiently transfected by using calcium phosphate or lipofectamine 2000 (Invitrogen). The DNA plasmids encoding green fluorescent protein (GFP) and T-antigen (TAg) were cotransfected in HEK-293S cells. GFP was used as a transfection marker for cell recording, and TAg was cotransfected to potentiate the receptor expression at the single-cell level (51). […]
For recording of the NMDA channels, the intracellular solution contained (in mM) 140 CsCl, 1 MgCl2, 0.1 EGTA, and 10 HEPES (pH 7.2 adjusted by Mg(OH)2), while the extracellular solution contained (in mM) 135 NaCl, 5.4 KCl, 1.8 CaCl2, 10 glucose and 5 HEPES (pH 7.2 adjusted by NaOH). […] The whole-cell current was recorded using an Axopatch-200B amplifier at a cutoff frequency of 2-20 kHz by a built-in, eight-pole Bessel filter and digitized at 5-50 kHz sampling frequency using a Digidata 1322A from Axon Instruments (Molecular Devices, Sunnyvale, Calif.). […]
Description for GluA2Qflip AMPA receptor: The putative inhibitory property of the four sequences was then functionally tested by the use of whole-cell current recording with GluA2Qflip expressed in HEK-293 cells. […] The current was recorded at −60 mV, pH 7.4 and 22° C. with the same HEK-293 cells expressing GluA2Qflip that were used for selection.
The procedure for whole-cell current recording used to assay putative aptamers is known in the art. For the present invention, all recordings were at −60 mV and 22° C. The recording electrode was filled with the buffer (in mM): 110 CsF, 30 CsCl, 4 NaCl, 0.5 CaCl2, 5 EGTA, and 10 HEPES (pH 7.4 adjusted by CsOH). The extracellular buffer composition used is described supra. All other buffers used were previously described. The whole-cell current was recorded using an Axopatch 200B amplifier at a cutoff frequency of 2-20 kHz by a built-in, four-pole Bessel filter and digitized at 5-50 kHz sampling frequency using a Digidata 1322A (Molecular Devices). pClamp 8 (Molecular Devices, Sunnyvale Calif.) was used for data acquisition.
Using whole-cell recording, the putative inhibitory property for each aptamer was tested with HEK 293 cells expressing GluA2Qflip receptors and expressed as the ratio of the whole-cell current amplitude in the absence and presence of an aptamer, that is, A/A(I). The current was recorded at −60 mV, pH 7.4 and 22° C. with the same HEK-293 cell expressing GluA2Qflip.
Selected RNA sequences were assayed using whole-cell current recording with GluA2Qflip. […] The third round of the library or “pool 3” at 1 μM was used as a control. The ‘*’ indicates P≦0.05 from the two-tailed Student's t test (H0: μ=μ0=1, 1 being the theoretical value of no inhibition, marked as the dashed line).
The ratio of the whole-cell current amplitude in the absence and presence of a putative aptamer or A/A(I) as a function of aptamer concentration was used to independently measure inhibition constants (29), as illustrated in Equations 7a and 7b (29). These equations were derived based on the same general mechanism of channel opening described earlier. KI, app is the apparent inhibition constant for the inhibitor;
Thus the inhibition constant for the closed-channel conformation or state was determined from A/A(I) vs. inhibitor concentration by Equations 7a and 7b. Likewise, at a saturating ligand concentration (i.e., L>>K1), the majority of the receptors were in the open-channel state. Thus the inhibition constant for the open-channel state was determined.
The original cDNAs in pBlueScript encoding rat GluA1, 2 and 3 AMPA receptors and GluK2 kainate receptor were kindly provided by Steve Heinemann. The GluA4 DNA plasmid was kindly provided by Peter Seeburg. The GluK1 plasmid was kindly provided by Geoffrey Swanson. The cDNAs of all three NMDA receptor subunits were gifts from John Woodward. All DNA plasmids were propagated using Escherichia coli host (DH5α) and purified using QIAGEN DNA purification kits.
All of the receptors were transiently expressed in HEK-2935 cell. HEK-293S cells were maintained in Dulbecco's modified Eagle's medium (DMEM) supplemented with 10% fetal bovine serum and 1% penicillin in a 37° C., 5% CO2, humidified incubator. Receptors were transiently transfected by using calcium phosphate or lipofectamine 2000 (Invitrogen). The DNA plasmids encoding green fluorescent protein (GFP) and T-antigen (TAg) were cotransfected in HEK-293S cells. GFP was used as a transfection marker for cell recording, and TAg was cotransfected to potentiate the receptor expression at the single-cell level (51). Transfected cells were allowed to grow for 48 hour before they were used for recording.
The procedure for whole-cell current recording to assay the inhibitory property of an RNA aptamer is known to those of skill in the art and has been previously described (47). […] The extracellular buffer composition is described above (see “Receptor Preparation”).

What is called Ki is the dissociation constant of the complex between target and ligand, obtained from inhibition or displacement. Lower therefore signals tighter binding. Consider `CNC(=O)N1N=C(c2ccc(N)cc2)c2cc3c(cc2CC1C)OCO3` (stereo not shown) [BDZ-f, 1-(4-aminophenyl)-3-methylcarbamoyl-4-methyl-7,8-methylenedioxy-3,4-dihydro-5H-2,3-benzodiazepine, reference compound], for which the “effect on GluA1, A/A(I)” value on GluA1flip is “inhibited”. The “inhibition of the non-desensitizing phase of the receptor response” value on GluA2Qflip AMPA receptor (0.1 mM glutamate, AF44/AF42 up to 12.5 μM, BDZ-f up to 20 μM) was “uninhibited”. In addition, the “inhibition of GluA2Qflip in the subunit selectivity test, A/A(I)” value against GluA2Qflip AMPA receptor (FIG. 8A/8B, two glutamate concentrations) is listed as “inhibited”. The inhibitory constant (Ki) at GluA2Qflip AMPA receptor (KI for the closed-channel conformation, 100 μM glutamate, -60 mV, 22 °C) amounted to 3.8 ± 0.4 µM; on GluA2Qflip AMPA receptor (KI for the open-channel conformation, 3 mM glutamate), 5.4 ± 0.8 µM.

Regarding “AF20: truncated AF1422 containing only the 5' stem loop, SEQ ID NO: 7 (GGGAGAAUUCAACUGCCAUC; listed as RNA, chemistry not fully specified)”, the “inhibition by A/A(I), ratio of whole-cell current amplitude in absence and presence of aptamer” value (“inhibition by A/A(I), ratio” below) in the series with GluA2Qflip AMPA receptor (100 μM glutamate) was “not sufficient to act either alone as an inhibitor or together with AF42 as an inhibitory pair”.

In the case of “AF38: AF42 with terminal loop removed, SEQ ID NO: 6 (GGGUCGUUAGAGCAUCAGUACACCAACGGUGCGAGCCC; listed as RNA, chemistry not fully specified)”, in the series with GluA2Qflip AMPA receptor (100 μM glutamate), the “inhibition by A/A(I), ratio” value was “total loss of function”.

Broadly, the Kd is the free concentration of one partner at which half of the binding sites on the other are occupied at equilibrium, for simple one-to-one binding. On to “AF42: 42-nucleotide RNA truncated from AF1422, SEQ ID NO: 5 (GGGAACGGUGCCAGUCCGAAACGGAUCGUUAGAGCAUCAGUA; listed as RNA, chemistry not given here)”, for which the “binding to the receptor in the presence of NBQX” value (“binding to the receptor” for short) in the series with GluA2Qflip receptor is “unaffected”. Further, the Kd was 44 ± 11 nM with GluA2Qflip receptor (setting [1]) and 57 ± 21 nM with GluA2Qflip receptor (setting [2]). Besides, the “inhibition by A/A(I), ratio” value in the series with GluA2Qflip AMPA receptor (100 μM glutamate) was “did not render any inhibition”.

As to “AF44: 44-nucleotide RNA truncated from AF1422, G22 replaced with A22, SEQ ID NO: 4 (GGGAGAAUUCAACUGCCACGGAUAAUAGCCAAUACUACAACCGU; listed as RNA, chemistry not given here)”, in the series with GluA2Qflip receptor, the “binding to the receptor” value is on record as “unaffected”. Further, the Kd with GluA2Qflip receptor (setting [1]) was 48 ± 13 nM; in the series with GluA2Qflip receptor (setting [2]), 44 ± 18 nM. Further, in the series with GluA2Qflip AMPA receptor (100 μM glutamate), the “inhibition by A/A(I), ratio” value is on record as “did not render any inhibition”.

B1: AF78: truncated sequence of AF1422, SEQ ID NO: 3, lacking the 5' stem-loop (nucleic acid)
chain: GGGAGCCAGAAGUGUAAUAGCCAACGGUGCCAGUCCGAAACGGAUCGUUAGAGCAUCAGUACUACAAGCUUCUGGACU
modifications: listed as RNA, chemistry not fully specified
For the molecule B1, in the series with GluA2Qflip AMPA receptor (100 μM glutamate), the “inhibition by A/A(I), ratio” value is listed as “non-inhibitory”.

B2: AF1422: RNA aptamer, SEQ ID NO: 1, most enriched SELEX sequence binding closed-channel GluA2Qflip (nucleic acid)
chain: GGGAGAAUUCAACUGCCAUCUAGGCAGAAGUGUAAUAGCCAACGGUGCCAGUCCGAAACGGAUCGUUAGAGCAUCAGUACUACAAGCUUCUGGACUCGGU
modifications: listed as RNA, chemistry not given here
In the case of B2, in the series with GluA2Qflip receptor, the “binding to the receptor” value is listed as “unaffected”. Besides, in the series with GluA2Qflip AMPA receptor (100 μM glutamate), the “inhibition by A/A(I), ratio” value is given as “one of the most potent inhibitors”. Moreover, the “inhibition of closed-channel versus open-channel conformation” value with GluA2Qflip AMPA receptor (low (100 μM) vs high (3 mM) glutamate) is “inhibited the closed-channel, preferentially over the open-channel”.
